This data set can be described thus: Aqueous Partition Value of a dye (water/1-octanol partitioning, absorbance at λmax). The following applies: deionized water/1-octanol 10.0 mL each, APV=(Af/Ai)×100%. The data set is classed as physicochemical. As to the method:
Dissolve in deionized water to a final volume of 10.0 mL an amount of dye sufficient to provide a solution absorbance value between 0.25 and 1.0, said absorbance being determined at the dye λmax between 400 nm and 750 nm, using a cuvette with 1.0 cm path length. Measure the absorbance of the sample at the dye λmax in a UV/Vis spectrophotometer, then transfer the entire 10.0 mL solution to a 50.0 mL plastic centrifuge tube. Add 10.0 mL of 1-octanol, cap the tube, and mix vigorously for 30 seconds using a Vortex™ mixer. Leave the tube standing undisturbed until the layers cleanly phase separate.
Using a transfer pipette, withdraw an aliquot of the aqueous (bottom) layer and transfer it to a cuvette with 1.0 cm path length for spectrophotometric analysis. Analyze the solution as before, and quantify the absorbance loss at λmax as “% of Dye Remaining in Aqueous Layer” as detailed below: % of Dye Remaining in Aqueous Layer=Aqueous Partition Value (APV)=(Af/Ai)×100% wherein Ai is the initial solution absorbance at λmax and Af is the final solution absorbance at λmax. II. Method for Determining Hueing Efficiency for Detergents • a.) Two 25 cm×25 cm fabric swatches of 16 oz white cotton interlock knit fabric (270 g/square meter, brightened with Uvitex BNB fluorescent whitening agent, from Test Fabrics. P.O. Box 26, Weston, Pa., 18643) are obtained. • b.) Prepare two one liter aliquots of tap water containing 1.55 g of AATCC standard heavy duty liquid (HDL) test detergent. • c.) Add a sufficient amount the dye to be tested to one of the aliquots from Step b.) above to produce an aqueous solution absorbance of 1 AU. • d.) Wash one swatch from a.) above in one of the aliquots of water containing 1.55 g of AATCC standard heavy duty liquid (HDL) test detergent and wash the other swatch in the other aliquot. Such washing step should be conducted for 30 minutes at room temperature with agitation. After such washing step separately rinse the swatches in tap water and air dry the swatches in the dark. • e.) After rinsing and drying each swatch, the hueing efficiency, DE*eff, of the dye is assessed by determining the L*, a*, and b* value measurements of each swatch using a Hunter LabScan XE reflectance spectrophotometer with D65 illumination, 10° observer and UV filter excluded. The hueing efficiency of the dye is then calculated using the following equation: DE*eff=((L*c−L*s)^2+(a*c−a*s)^2+(b*c−b*s)^2)^1/2 • wherein the subscripts c and s respectively refer to the L*, a*, and b* values measured for the control, i.e., the fabric sample washed in detergent with no dye, and the fabric sample washed in detergent containing the dye to be screened. III. Method for Determining Wash Removability • a.) Prepare two separate 150 ml aliquots of HDL detergent solution, according to AATCC Test Method 61-2003, Test 2A and containing 1.55 g/liter of the AATCC HDL formula in distilled water. • b.) A 15 cm×5 cm sample of each fabric swatch from the Method for Determining of Hueing Efficiency For Detergents described above is washed in a Launderometer for 45 minutes at 49° C. in 150 ml of a the HDL detergent solution prepared according to Step 11. a.) above. • c.) The samples are rinsed with separate aliquots of rinse water and air dried in the dark, and then L*, a*, and b* value measurements of each swatch are taken using a Hunter LabScan XE reflectance spectrophotometer with D65 illumination, 10° observer and UV filter excluded. The amount of residual coloration is assessed by measuring the DE*res, calculated using the following equation: DE*res=((L*c−L*s)^2+(a*c−a*s)^2+(b*c−b*s)^2)^1/2 • wherein the subscripts c and s respectively refer to the L*, a*, and b* values measured for the control, i.e., the fabric sample initially washed in detergent with no dye, and the fabric sample initially washed in detergent containing the dye to be screened. The wash removal value for the dye is then calculated according to the formula: % removal=100×(1−DE*res/DE*eff). C. Test Results […]
Consider `COc1cc(/N=N/c2sc(C#N)c(C)c2C#N)c(C)cc1N(CCn1cc[n+](C)c1)CCn1cc[n+](C)c1` [Example 1], for which the “% Dye in Water Layer” value is 97%. Turning to `Cc1cc(N(CCn2cc[n+](C)c2)CCn2cc[n+](C)c2)ccc1/N=N/c1sc(C#N)c(C)c1C#N` [Example 2], the “% Dye in Water Layer” value was 83%. For `CCN(CC[N+](CC)(CC)CC)c1ccc(/N=N/c2sc(C#N)c(C)c2C#N)c(C)c1` [Example 7], the “% Dye in Water Layer” value is recorded as 15%. With `CCN(CCOCCOCCOCCOCC[N+](CC)(CC)CC)c1ccc(/N=N/c2sc(C#N)c(C)c2C#N)c(C)c1` [Example 12], the “% Dye in Water Layer” value was determined as 15%. With `CC[N+](CC)(CC)CCOCCOCCN(CCOCC[N+](CC)(CC)CC)c1cc(C)c(/N=N/c2sc(C#N)c(C)c2C#N)cc1OC` [Example 18] the figure was 49%.

Turning to `CC[N+](CC)(CC)CCOCCOCCN(CCOCC[N+](CC)(CC)CC)c1cc(OC)c(/N=N/c2sc(C#N)c(C)c2C#N)cc1OC` [Example 19], the “% Dye in Water Layer” value is 78%.

On to `COc1cc(/N=N/c2sc(C#N)c(C)c2C#N)c(C)cc1N(CCOCCOCC[N+](C)(C)CCO)CCOCC[N+](C)(C)CCO` [Example 21], for which the “% Dye in Water Layer” value amounted to 75%.

Turning to `COc1cc(/N=N/c2sc(C#N)c(C)c2C#N)c(C)cc1N(CCOCCOCC[N+](CCO)(CCO)CCO)CCOCC[N+](CCO)(CCO)CCO` [Example 22], the “% Dye in Water Layer” value is on record as 56%. With `CC[N+](CC)(CC)CCOCCOCCN(CCOCC[N+](CC)(CC)CC)c1ccc(/N=N/c2sc(C#N)c(C)c2C#N)c(C)c1` [Example 35] the figure was 66%; with `CC[N+](CC)(CC)CCN(CC[N+](CC)(CC)CC)c1ccc(/N=N/c2sc(C#N)c(C)c2C#N)c(C)c1` [Example 36], 94%.

The values above are taken from patent US8715368B2, “Thiophene azo dyes and laundry care compositions containing the same” (The Procter & Gamble Company, priority 2010, dated 2014).
